According to the CheMixHub viscosity set:
Where “and” joins values, the source holds several entries; their conditions need not be identical. Equal values may be shown once.

Experiment: xn = mol fraction of the nth substance listed

O=S(=O)([O-])[O-].[O]=[V+2] + O
viscosity, 100 kPa
Settings | 293.15 K | 298.15 K | 303.15 K | 308.15 K | 313.15 K | 318.15 K | 323.15 K
x1 = 0.000898 | 1.035 mPa·s | 0.9204 mPa·s | 0.8258 mPa·s | 0.7466 mPa·s | 0.6802 mPa·s | 0.6242 mPa·s | 0.576 mPa·s
x1 = 0.00129 | 1.048 mPa·s | 0.9314 mPa·s | 0.836 mPa·s | 0.7558 mPa·s | 0.688 mPa·s | 0.6311 mPa·s | 0.5827 mPa·s
x1 = 0.00163 | 1.068 mPa·s | 0.9499 mPa·s | 0.8519 mPa·s | 0.7707 mPa·s | 0.7015 mPa·s | 0.6439 mPa·s | 0.5926 mPa·s
x1 = 0.002247 | 1.089 mPa·s | 0.9678 mPa·s | 0.8664 mPa·s | 0.7814 mPa·s | – | – | –
x1 = 0.002326 | 1.101 mPa·s | 0.978 mPa·s | 0.8762 mPa·s | 0.7911 mPa·s | 0.7207 mPa·s | 0.6594 mPa·s | 0.6101 mPa·s
x1 = 0.002883 | 1.132 mPa·s | 1.005 mPa·s | 0.8997 mPa·s | 0.8136 mPa·s | 0.7379 mPa·s | 0.6736 mPa·s | 0.6205 mPa·s
x1 = 0.003583 | 1.154 mPa·s | 1.024 mPa·s | 0.9168 mPa·s | 0.8267 mPa·s | 0.7514 mPa·s | 0.6872 mPa·s | 0.6348 mPa·s
x1 = 0.004098 | 1.174 mPa·s | 1.042 mPa·s | 0.9321 mPa·s | 0.8405 mPa·s | 0.7626 mPa·s | 0.6972 mPa·s | 0.6409 mPa·s
x1 = 0.004417 | 1.19 mPa·s | – | 0.9437 mPa·s | 0.8499 mPa·s | 0.7718 mPa·s | 0.7049 mPa·s | 0.6484 mPa·s
x1 = 0.00448 | 1.189 mPa·s | – | 0.943 mPa·s | 0.8499 mPa·s | – | – | –
x1 = 0.005377 | 1.236 mPa·s | 1.094 mPa·s | 0.9762 mPa·s | 0.8796 mPa·s | 0.7968 mPa·s | 0.7274 mPa·s | 0.6684 mPa·s
x1 = 0.006709 | 1.297 mPa·s | 1.148 mPa·s | 1.024 mPa·s | – | – | – | –
x1 = 0.00893 | 1.418 mPa·s | 1.252 mPa·s | 1.115 mPa·s | – | – | – | –
x1 = 0.0111 | 1.548 mPa·s | 1.364 mPa·s | 1.212 mPa·s | – | – | – | –
x1 = 0.0133 | 1.696 mPa·s | 1.491 mPa·s | 1.322 mPa·s | – | – | – | –
x1 = 0.0155 | 1.854 mPa·s | 1.627 mPa·s | 1.44 mPa·s | – | – | – | –
x1 = 0.0177 | 2.031 mPa·s | 1.777 mPa·s | 1.57 mPa·s | – | – | – | –
x1 = 0.01986 | 2.226 mPa·s | 1.943 mPa·s | 1.711 mPa·s | – | – | – | –
x1 = 0.02202 | 2.436 mPa·s | 2.115 mPa·s and 2.121 mPa·s | – | – | – | – | –
x1 = 0.02418 | 2.662 mPa·s | 2.312 mPa·s | 2.027 mPa·s | – | – | – | –
x1 = 0.02631 | 2.89 mPa·s | 2.509 mPa·s | 2.196 mPa·s | – | – | – | –
x1 = 0.03893 | – | – | – | – | – | 2.575 mPa·s | –

C1C[C@@H]2[C@H]3CC[C@H](C3)[C@@H]2C1 + CCCCCCCCCC
viscosity
Settings | 293.15 K | 298.15 K | 303.15 K | 308.15 K | 313.15 K | 318.15 K | 323.15 K
100 kPa, x1 = 0.1005 | 0.989 mPa·s and 0.992 mPa·s | 0.921 mPa·s | 0.855 mPa·s and 0.858 mPa·s | 0.8 mPa·s and 0.803 mPa·s | 0.75 mPa·s and 0.754 mPa·s | 0.706 mPa·s and 0.709 mPa·s | 0.666 mPa·s and 0.669 mPa·s
100 kPa, x1 = 0.2006 | 1.074 mPa·s and 1.083 mPa·s | 0.993 mPa·s and 1.002 mPa·s | 0.925 mPa·s and 0.931 mPa·s | 0.863 mPa·s and 0.869 mPa·s | 0.808 mPa·s and 0.813 mPa·s | 0.759 mPa·s and 0.764 mPa·s | 0.715 mPa·s and 0.72 mPa·s
100 kPa, x1 = 0.3006 | 1.196 mPa·s | 1.105 mPa·s | 1.023 mPa·s | 0.949 mPa·s | 0.885 mPa·s | 0.828 mPa·s | 0.778 mPa·s
100 kPa, x1 = 0.3043 | 1.18 mPa·s | 1.09 mPa·s | 1.013 mPa·s | 0.943 mPa·s | 0.88 mPa·s | 0.825 mPa·s | 0.777 mPa·s
100 kPa, x1 = 0.3995 | 1.297 mPa·s | 1.195 mPa·s | 1.105 mPa·s | 1.027 mPa·s | 0.958 mPa·s | 0.897 mPa·s | 0.841 mPa·s
100 kPa, x1 = 0.4006 | 1.306 mPa·s | 1.203 mPa·s | 1.113 mPa·s | 1.033 mPa·s | 0.964 mPa·s | 0.902 mPa·s | 0.848 mPa·s
100 kPa, x1 = 0.4977 | 1.442 mPa·s | 1.327 mPa·s | 1.226 mPa·s | 1.137 mPa·s | 1.057 mPa·s | 0.988 mPa·s | 0.925 mPa·s
100 kPa, x1 = 0.4997 | 1.45 mPa·s | 1.333 mPa·s | 1.232 mPa·s | 1.142 mPa·s | 1.063 mPa·s | 0.99 mPa·s | 0.927 mPa·s
100 kPa, x1 = 0.5986 | 1.619 mPa·s | 1.486 mPa·s | 1.37 mPa·s | 1.267 mPa·s | 1.176 mPa·s | 1.096 mPa·s | 1.023 mPa·s
100 kPa, x1 = 0.6007 | 1.629 mPa·s | 1.495 mPa·s | 1.378 mPa·s | 1.275 mPa·s | 1.184 mPa·s | 1.103 mPa·s | 1.031 mPa·s
100 kPa, x1 = 0.7 | 1.859 mPa·s | 1.7 mPa·s | 1.562 mPa·s | 1.441 mPa·s | – | 1.238 mPa·s | 1.155 mPa·s
100 kPa, x1 = 0.7001 | 1.849 mPa·s | 1.692 mPa·s | 1.555 mPa·s | 1.435 mPa·s | – | 1.234 mPa·s | 1.15 mPa·s
100 kPa, x1 = 0.7963 | 2.117 mPa·s | 1.938 mPa·s | 1.776 mPa·s | 1.634 mPa·s | 1.51 mPa·s | 1.398 mPa·s | 1.299 mPa·s
100 kPa, x1 = 0.8002 | 2.153 mPa·s | 1.963 mPa·s | 1.798 mPa·s | 1.655 mPa·s | – | 1.413 mPa·s | 1.313 mPa·s
100 kPa, x1 = 0.8994 | 2.512 mPa·s | 2.284 mPa·s | 2.086 mPa·s | 1.914 mPa·s | 1.763 mPa·s | 1.629 mPa·s | 1.511 mPa·s
100 kPa, x1 = 0.8995 | 2.525 mPa·s | 2.294 mPa·s | 2.093 mPa·s | 1.918 mPa·s | 1.765 mPa·s | 1.631 mPa·s | 1.513 mPa·s
101 kPa, x2 = 0.4893 | 1.525 mPa·s | – | – | – | – | – | –
101 kPa, x2 = 0.6905 | 1.245 mPa·s | – | – | – | – | – | –
